These results are taken from patent US20090143279A1 (priority 2007, published 2009).

One experiment concerns reactive oxygen species. The class given is cell-based, mouse.
Experiment [1] deals with mitochondrial membrane potential. The class given is cell-based, mouse.
The next experiment relates to cytochrome c. The format is cell-based, mouse.
The test system of experiment [2] is cellular dehydrogenase activity.
The mark [3] stands for this setting: composite Z-score vs mock-treated (DMSO) wells, Conc 20 μM.
Where [4] appears, read: composite Z-score vs DMSO, Conc 20 μM.

Where two headings read alike, the source gives them in different places.

Sequence of cytochrome c (P62897 whole entry): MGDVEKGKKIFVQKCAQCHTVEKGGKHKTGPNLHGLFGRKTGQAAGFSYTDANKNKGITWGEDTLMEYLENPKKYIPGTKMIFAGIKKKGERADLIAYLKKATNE

As to `CC(=O)[O-].CC(=O)[O-].[Cd+2]` [cadmium acetate], in the experiment with reactive oxygen species, the ROS was −1.066. In the experiment on C2C12 myotubes, the Viability was −1.393. This compound showed a ΔΨm in experiment [1] of −1.276. The cyt c in the experiment with cytochrome c is given as −2.166. Besides, in experiment [2], the MTT is on record as −1.896.

`CC1(C)C(=O)C=C[C@@]2(C)C1=C(O)C(=O)[C@]1(C)[C@@H]2CC[C@@]2(C)[C@H](c3ccoc3)C[C@H]3O[C@]321` [cedrelone] showed an ROS in the experiment with reactive oxygen species (setting [3]) of −3.982. The Viability with C2C12 myotubes (setting [3]) is recorded as −4.680. Besides, the ΔΨm in experiment [1] (setting [3]) is −3.459. The cyt c with cytochrome c (setting [3]) is −5.998. For the same compound, the MTT in experiment [2] (setting [3]) is listed as −6.617.

In the experiment with reactive oxygen species (setting [4]), `COC(=O)[C@]1(C)CC[C@]2(C)CC[C@]3(C)C4=CC=C5C(=CC(=O)C(O)=C5C)[C@]4(C)CC[C@@]3(C)[C@@H]2C1` [pristimerin] registered an ROS of −3.693. The Viability with C2C12 myotubes (setting [4]) is listed as −5.473. In experiment [1] (setting [4]), this compound returned a ΔΨm of −3.651. Further, in the experiment with cytochrome c (setting [4]), the cyt c is −5.896. Further, the MTT in experiment [2] (setting [4]) is on record as −6.164.

`CC(C)=CCCC1(C)C=Cc2c(O)c3c(c(CC=C(C)C)c2O1)OC12C(=CC4CC1C(C)(C)OC2(C/C=C(/C)C(=O)O)C4O)C3=O` (stereo not shown) [dihydrogambogic acid]: the ROS in the experiment with reactive oxygen species (setting [3]) was −2.239. The Viability in the experiment on C2C12 myotubes (setting [3]) is on record as −5.468. Moreover, in experiment [1] (setting [3]), the ΔΨm is recorded as −3.431. The compound further returned a cyt c with cytochrome c (setting [3]) of −5.191. In addition, the MTT in experiment [2] (setting [3]) is −6.208.

In the experiment on reactive oxygen species, `C[C@@H](N)[C@@H](O)c1ccccc1` [1S,2R-phenylpropanolamine] gave an ROS of 0.721. In the experiment on C2C12 myotubes, this compound displayed a Viability of 0.296. Further, in experiment [1], the ΔΨm is reported as −0.137. The same compound came in with a cyt c in the experiment with cytochrome c (setting [4]) of 0.280. Moreover, the MTT in experiment [2] is recorded as −1.507.

On to `C=C(C)/C=C1/C=CC(=O)C(C)=C1` [retusoquinone], for which, in the experiment with reactive oxygen species (setting [3]), the ROS is given as −3.565. Besides, in the experiment with C2C12 myotubes (setting [3]), the Viability is −5.371. In addition, the ΔΨm in experiment [1] (setting [3]) is −3.628. Moreover, the cyt c in the experiment on cytochrome c (setting [3]) is −5.303. The same compound returned an MTT in experiment [2] (setting [3]) of −6.075.

The compound `C=C(C)CCCC(C)CCOC(C)=O` (stereo not shown) [rhodinyl acetate] gave an ROS with reactive oxygen species of −0.024. In the experiment with C2C12 myotubes, this compound came in with a Viability of −0.197. Further, in experiment [1], the ΔΨm is reported as −0.631. Besides, the cyt c in the experiment with cytochrome c was found to be 0.137. The same compound yielded an MTT in experiment [2] of −0.833.

Consider `O=C1C(O)=C(O)C(=O)C(O)=C1O` [tetrahydroxy-1,4-quinone], for which the ROS in the experiment on reactive oxygen species was determined as 0.667. In addition, in the experiment with C2C12 myotubes, the Viability is listed as −1.006. In experiment [1], this compound gave a ΔΨm of −0.511. This compound displayed a cyt c in the experiment on cytochrome c of −0.785. Moreover, in experiment [2], the MTT is on record as −1.965.

In turn, L-methionine sulfoximine showed an ROS in the experiment with reactive oxygen species of 0.762. The Viability in the experiment with C2C12 myotubes was −0.928. The compound also displayed a ΔΨm in experiment [1] of −0.703. Besides, the cyt c with cytochrome c is given as −0.412. Moreover, the MTT in experiment [2] is recorded as −1.902.

Regarding `O=C(O)CCCOc1ccc(Cl)cc1Cl` [2,4-dichlorophenoxybutyric acid], the ROS in the experiment with reactive oxygen species is reported as 0.758. For the same compound, the Viability in the experiment with C2C12 myotubes was 0.337. The compound also had a ΔΨm in experiment [1] of −0.479. This compound also gave a cyt c with cytochrome c of 0.711. The same compound gave an MTT in experiment [2] of −1.368.

`CC(=O)O[C@H]1CC[C@@]2(C)C(=CC[C@@H]3[C@@H]2CC[C@]2(C)C(=O)CC[C@@H]32)C1` [praesterone acetate] showed an ROS in the experiment with reactive oxygen species of 0.054. This compound returned a Viability with C2C12 myotubes of 1.018. This compound had a ΔΨm in experiment [1] of 1.329. The compound also gave a cyt c in the experiment on cytochrome c of −0.521. This compound also gave an MTT in experiment [2] of 1.084.

For the compound `CC(C)NC[C@@H](O)COc1ccc(CC(N)=O)cc1` [(R)-(+)-atenolol], in the experiment with reactive oxygen species, the ROS was determined as 1.639. Also, the Viability in the experiment with C2C12 myotubes is listed as −0.846. The same compound showed a ΔΨm in experiment [1] of −0.573. In addition, in the experiment on cytochrome c, the cyt c was −0.033. Besides, the MTT in experiment [2] is −1.053.

In the experiment with reactive oxygen species (setting [4]), `CC1=C(O)C(=O)C=C2C1=CC=C1[C@@]2(C)CC[C@@]2(C)[C@@H]3C[C@](C)(C(=O)O)CC[C@]3(C)CC[C@]12C` [celastrol] came in with an ROS of −2.732. The compound also had a Viability in the experiment on C2C12 myotubes (setting [4]) of −4.797. In experiment [1] (setting [4]), this compound yielded a ΔΨm of −3.520. Further, the cyt c in the experiment on cytochrome c (setting [4]) is on record as −5.979. In experiment [2] (setting [4]), this compound showed an MTT of −6.584.

The compound (S)-(−)-atenolol gave an ROS with reactive oxygen species of −0.554. Besides, in the experiment with C2C12 myotubes, the Viability amounted to 0.012. In experiment [1], this compound showed a ΔΨm of 0.396. Also, in the experiment with cytochrome c, the cyt c was found to be 0.030. Also, in experiment [2], the MTT is −0.552.

In the experiment with reactive oxygen species, `C[C@@H]1[C@H](O)[C@@H](C)/C=C/C=C/C=C/C=C/C=C/C=C/C=C/[C@H](O[C@@H]2O[C@H](C)[C@@H](O)[C@H](N)[C@@H]2O)C[C@@H]2O[C@](O)(C[C@@H](O)C[C@@H](O)[C@H](O)CC[C@@H](O)C[C@@H](O)CC(=O)O[C@H]1C)C[C@H](O)[C@H]2C(=O)O` [amphotericin B] showed an ROS of 0.005. In addition, the Viability in the experiment with C2C12 myotubes came out at 1.210. This compound also yielded a ΔΨm in experiment [1] of 0.308. In the experiment on cytochrome c, this compound displayed a cyt c of −0.982. In experiment [2], the MTT was −0.790.

Consider `CC(=O)N(CC(O)CO)c1c(I)c(C(=O)NCC(O)CO)c(I)c(C(=O)NCC(O)CO)c1I` (stereo not shown) [iohexol], for which the ROS in the experiment on reactive oxygen species was 0.568. This compound also showed a Viability in the experiment with C2C12 myotubes of −0.374. In addition, the ΔΨm in experiment [1] is −0.970. In addition, in the experiment on cytochrome c, the cyt c was 0.080. The compound also came in with an MTT in experiment [2] of −1.085.

As for `Cc1cc(C2CCCCC2)n(O)c(=O)c1.NCCO` [ciclopirox ethanolamine], the ROS with reactive oxygen species is −1.968. Further, in the experiment with C2C12 myotubes, the Viability amounted to 0.101. The compound further returned a ΔΨm in experiment [1] of 2.994. Further, in the experiment on cytochrome c, the cyt c was −0.351. For the same compound, the MTT in experiment [2] is −2.239.

Consider `N[C@@H](C(=O)N[C@@H]1C(=O)N2C(C(=O)O)=C(Cl)CC[C@H]12)c1ccccc1` [loracarbef], for which, in the experiment on reactive oxygen species, the ROS is on record as −0.236. The Viability in the experiment on C2C12 myotubes is 0.317. Also, the ΔΨm in experiment [1] is −0.229. Besides, the cyt c in the experiment on cytochrome c turned out to be 0.622. Further, the MTT in experiment [2] is listed as −0.158.

As for `Cc1c(N(C)C)c(=O)n(-c2ccccc2)n1C` [amidopyrine], the ROS in the experiment with reactive oxygen species is recorded as −0.776. In the experiment on C2C12 myotubes, this compound returned a Viability of 0.691. This compound had a ΔΨm in experiment [1] of −0.496. The compound further returned a cyt c in the experiment with cytochrome c of 0.748. The compound further gave an MTT in experiment [2] of −0.051.

In the case of `COC1=CC(=O)C(O)=C/C1=C\C=C\c1ccccc1` [obtusaquinone], the ROS in the experiment with reactive oxygen species (setting [4]) is listed as −1.119. For the same compound, the Viability in the experiment with C2C12 myotubes (setting [4]) was −4.658. In experiment [1] (setting [4]), this compound registered a ΔΨm of −3.829. In addition, the cyt c in the experiment on cytochrome c (setting [4]) was −5.381. Also, the MTT in experiment [2] (setting [4]) is −6.409.

`COc1ccc2c(c1)CC[C@@H]1[C@@H]2CC[C@]2(C)[C@@H](O)[C@H](O)C[C@@H]12` [estriol methyl ether] returned an ROS in the experiment on reactive oxygen species of 0.299. Moreover, in the experiment with C2C12 myotubes, the Viability is recorded as 0.054. Also, in experiment [1], the ΔΨm is listed as −0.046. The cyt c in the experiment with cytochrome c (setting [4]) turned out to be 0.241. In addition, the MTT in experiment [2] was −1.611.

`CC` [methylmethane] showed an ROS with reactive oxygen species of 0.909. Moreover, the Viability with C2C12 myotubes is reported as −1.159. Moreover, in experiment [1], the ΔΨm is listed as −0.924. In addition, the cyt c in the experiment on cytochrome c is 0.221. For the same compound, the MTT in experiment [2] is given as −1.330.

Consider pyrantel tartrate, for which, in the experiment on reactive oxygen species, the ROS was 1.579. The Viability in the experiment with C2C12 myotubes is given as 0.330. The compound also yielded a ΔΨm in experiment [1] of −1.028. Also, in the experiment with cytochrome c, the cyt c was −0.306. This compound also had an MTT in experiment [2] of −1.214.
